# Experimental data reported in patent US10131675B2 (Genentech, Inc., priority 2015, dated 2018).
# Target: DLK (Homo sapiens (Human), UniProt Q12852)
# Experiment: DLK TR-FRET Inhibition Assay
# Type: biochemical
# Details: N-terminally GST-tagged DLK (catalytic domain amino acid 1-520), MKK4 K131M substrate, 30 μM ATP; read-out: DLK HTRF Ki
# Protocol: DLK kinase reactions (20 μL) containing 5 nM N-terminally GST-tagged DLK (catalytic domain amino acid 1-520) (Carna Bioscience), 40 nM N-terminally HIS tagged MKK4 K131M substrate, and 30 μM ATP in kinase reaction buffer (50 mM HEPES, pH 7.5, 0.01% Triton X-100, 0.01% Bovine γ-Globulins, 2 mM DTT, 10 mM MgCl2 and 1 mM EGTA), and testing compound 1:3 serial diluted starting at 20 uM were incubated at ambient temperature for 60 minutes in 384 well OptiPlate (Perkin Elmer). To quench kinase reactions and detect phosphorylated MKK4, 15 μL of TR-FRET antibody mixture containing 2 nM anti-phosphorylated MKK4 labeled with Europium cryptate (Cisbio) and 23 nM anti-HIS labeled with D2 (Cisbio) in detection buffer (25 mM Tris pH 7.5, 100 mM NaCl, 100 mM EDTA, 0.01% Tween-20, and 200 mM KF) was added to the reaction mixture. The detection mixture was incubated for 3 hours at ambient temperature and the TR-FRET was detected with an EnVision multilabel plate reader (Perkin-Elmer) using the LANCE/DELFIA Dual Enh label from Perkin-Elmer (excitation filter: UV2 (TRF) 320 and emission filters: APC 665 and Europium 615).
# Sequence of DLK (Q12852 1-520): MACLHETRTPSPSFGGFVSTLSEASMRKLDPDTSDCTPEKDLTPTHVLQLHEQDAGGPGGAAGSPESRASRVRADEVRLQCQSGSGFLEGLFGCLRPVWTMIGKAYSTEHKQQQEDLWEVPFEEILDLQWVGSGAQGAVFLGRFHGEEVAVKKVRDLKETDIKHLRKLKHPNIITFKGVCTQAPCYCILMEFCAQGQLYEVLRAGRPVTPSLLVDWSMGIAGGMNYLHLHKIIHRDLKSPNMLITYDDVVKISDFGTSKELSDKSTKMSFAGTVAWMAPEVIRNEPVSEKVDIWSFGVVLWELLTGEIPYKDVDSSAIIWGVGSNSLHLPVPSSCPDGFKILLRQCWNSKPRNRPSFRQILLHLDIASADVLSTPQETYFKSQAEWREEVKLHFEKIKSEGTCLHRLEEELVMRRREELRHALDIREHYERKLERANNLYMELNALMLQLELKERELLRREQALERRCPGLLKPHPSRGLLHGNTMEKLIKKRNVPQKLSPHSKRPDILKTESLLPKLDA
row,Ki [nM],Structure (SMILES)
1,6.79,"CC1(C)OCCn2c1nc1c(N3CC(O)C3)nc(-c3cnc4[nH]cc(C(F)(F)F)c4c3)nc12 [Example 39, 1-[8,8-Dimethyl-3-(3-trifluoromethyl-1H-pyrrolo[2,3-b]pyridin-5-yl)-5,6-dihydro-8H-7-oxa-2,4,4b,9-tetraaza-fluoren-1-yl]-azetidin-3-ol]"
2,5.91,"CC1(C)OCCn2c1nc1c(N3CC(O)C3)nc(-c3cnc4[nH]cc(Cl)c4c3)nc12 [Example 40, 1-[3-(3-Chloro-1H-pyrrolo[2,3-b]pyridin-5-yl)-8,8-dimethyl-5,6-dihydro-8H-7-oxa-2,4,4b,9-tetraaza-fluoren-1-yl]-azetidin-3-ol]"
3,30.8,"COC1CN(c2nc(-c3cnc4[nH]cc(C#N)c4c3)nc3c2nc2n3CCOC2(C)C)C1 [Example 41, 5-[1-(3-Methoxy-azetidin-1-yl)-8,8-dimethyl-5,6-dihydro-8H-7-oxa-2,4,4b,9-tetraaza-fluoren-3-yl]-1H-pyrrolo[2,3-b]pyridin-3-carbonitrile]"
4,4.97,"CC1(C)OCCn2c1nc1c(N3CCC4(COC4)C3)nc(-c3cnc4[nH]cc(C#N)c4c3)nc12 [Example 42, 5-[8,8-Dimethyl-1-(2-oxa-6-aza-spiro[3.4]oct-6-yl)-5,6-dihydro-8H-7-oxa-2,4,4b,9-tetraaza-fluoren-3-yl]-1H-pyrrolo[2,3-b]pyridin-3-carbonitrile]"
5,41.8,"CC1(C)OCCn2c1nc1c(N3CC4CC3C4)nc(-c3cnc(N)c(OC(F)F)c3)nc12 [Example 43, 5-[1-(2-Aza-bicyclo[2.1.1]hex-2-yl)-8,8-dimethyl-5,6-dihydro-8H-7-oxa-2,4,4b,9-tetraaza-fluoren-3-yl]-3-difluoromethoxy-pyridin-2-ylamine]"
6,621,"CC1(C)OCCn2c1nc1c(N3CC4CC3C4)nc(-c3cnc(N)c(C4CC4)c3)nc12 [Example 44, 5-[1-(2-Aza-bicyclo[2.1.1]hex-2-yl)-8,8-dimethyl-5,6-dihydro-8H-7-oxa-2,4,4b,9-tetraaza-fluoren-3-yl]-3-cyclopropyl-pyridin-2-ylamine]"
7,9.87,CC1(C)OCCn2c1nc1c(N3CC(F)C3)nc(-c3cnc4[nH]cc(C(F)(F)F)c4c3)nc12 [Example 45]
8,130,"CC1(C)OCCn2c1nc1c(N3CC4CC3C4)nc(-c3cnc(N)nc3)nc12 [Example 46, 5-[1-(2-Aza-bicyclo[2.1.1]hex-2-yl)-8,8-dimethyl-5,6-dihydro-8H-7-oxa-2,4,4b,9-tetraaza-fluoren-3-yl]-pyrimidin-2-ylamine]"
9,1300,CNc1ncc(-c2nc(N3CC4CC3C4)c3nc4n(c3n2)CCOC4(C)C)cn1 [Example 47]
10,992,"Cc1cc(-c2nc(N3CC4CC3C4)c3nc4n(c3n2)CCOC4(C)C)cnc1N [Example 48, 5-(4-(2-azabicyclo[2.1.1]hexan-2-yl)-6,6-dimethyl-8,9-dihydro-6H-[1,4]oxazino[4,3-e]purin-2-yl)-3-methylpyridin-2-amine]"
11,270,"CC1(C)OCCn2c1nc1c(N3CCC4(COC4)C3)nc(-c3cnc(N)c(C(F)(F)F)c3)nc12 [Example 49, 5-[8,8-Dimethyl-1-(2-oxa-6-aza-spiro[3.4]oct-6-yl)-5,6-dihydro-8H-7-oxa-2,4,4b,9-tetraaza-fluoren-3-yl]-3-trifluoromethyl-pyridin-2-ylamine]"
12,490,"CC1(C)OCCn2c1nc1c(N3CC4(COC4)C3)nc(-c3cnc(N)nc3)nc12 [Example 50, 5-[8,8-Dimethyl-1-(2-oxa-6-aza-spiro[3.3]hept-6-yl)-5,6-dihydro-8H-7-oxa-2,4,4b,9-tetraaza-fluoren-3-yl]-pyrimidin-2-ylamine]"
13,907,"CC1(C)OCCn2c1nc1c(N3CC4(CCCO4)C3)nc(-c3cnc(N)nc3)nc12 [Example 51, 5-[8,8-Dimethyl-1-(5-oxa-2-aza-spiro[3.4]oct-2-yl)-5,6-dihydro-8H-7-oxa-2,4,4b,9-tetraaza-fluoren-3-yl]-pyrimidin-2-ylamine]"
14,515,"CC1(C)OCCn2c1nc1c(N3CC4(CCC4)C3)nc(-c3cnc(N)nc3)nc12 [Example 52, 5-[1-(2-Aza-spiro[3.3]hept-2-yl)-8,8-dimethyl-5,6-dihydro-8H-7-oxa-2,4,4b,9-tetraaza-fluoren-3-yl]-pyrimidin-2-ylamine]"
15,479,"C[C@H]1CCCN1c1nc(-c2cnc(N)nc2)nc2c1nc1n2CCOC1(C)C [Example 53, 5-[8,8-Dimethyl-1-((S)-2-methyl-pyrrolidin-1-yl)-5,6-dihydro-8H-7-oxa-2,4,4b,9-tetraaza-fluoren-3-yl]-pyrimidin-2-ylamine]"
16,284,"CC1CCC(C)N1c1nc(-c2cnc(N)nc2)nc2c1nc1n2CCOC1(C)C (centres unmarked) [Example 54, 5-[1-(2,5-Dimethyl-pyrrolidin-1-yl)-8,8-dimethyl-5,6-dihydro-8H-7-oxa-2,4,4b,9-tetraaza-fluoren-3-yl]-pyrimidin-2-ylamine]"
17,371,"C[C@@H]1CC[C@H](C)N1c1nc(-c2cnc(N)nc2)nc2c1nc1n2CCOC1(C)C [Example 55, 5-(4-((2R,5S)-2,5-dimethylpyrrolidin-1-yl)-6,6-dimethyl-8,9-dihydro-6H-[1,4]oxazino[4,3-e]purin-2-yl)pyrimidin-2-amine]"
18,200,COc1cc(-c2nc(N3CC4CC3C4)c3nc4n(c3n2)CCOC4(C)C)cnc1N [Example 57]
19,87.7,"CN(c1nc(-c2cnc(N)nc2)nc2c1nc1n2CCOC1(C)C)C1CCC1 [Example 58, 2-(2-aminopyrimidin-5-yl)-N-cyclobutyl-N,6,6-trimethyl-8,9-dihydro-6H-[1,4]oxazino[4,3-e]purin-4-amine]"
20,192,"CC1(C)OCCn2c1nc1c(NC3CC3)nc(-c3cnc(N)nc3)nc12 [Example 59, 2-(2-aminopyrimidin-5-yl)-N-cyclopropyl-6,6-dimethyl-8,9-dihydro-6H-[1,4]oxazino[4,3-e]purin-4-amine]"
21,207,"CN(c1nc(-c2cnc(N)nc2)nc2c1nc1n2CCOC1(C)C)C1CC1 [Example 60, 2-(2-aminopyrimidin-5-yl)-N-cyclopropyl-N,6,6-trimethyl-8,9-dihydro-6H-[1,4]oxazino[4,3-e]purin-4-amine]"
22,250,"CCN(c1nc(-c2cnc(N)nc2)nc2c1nc1n2CCOC1(C)C)C1CC1 [Example 61, 2-(2-aminopyrimidin-5-yl)-N-cyclopropyl-N-ethyl-6,6-dimethyl-8,9-dihydro-6H-[1,4]oxazino[4,3-e]purin-4-amine]"
23,86.7,"CCN(c1nc(-c2cnc(N)nc2)nc2c1nc1n2CCOC1(C)C)C1CCC1 [Example 62, 2-(2-aminopyrimidin-5-yl)-N-cyclobutyl-N-ethyl-6,6-dimethyl-8,9-dihydro-6H-[1,4]oxazino[4,3-e]purin-4-amine]"
24,558,"CC(C)N(c1nc(-c2cnc(N)nc2)nc2c1nc1n2CCOC1(C)C)C1CC1 [Example 63, 2-(2-aminopyrimidin-5-yl)-N-cyclopropyl-N-isopropyl-6,6-dimethyl-8,9-dihydro-6H-[1,4]oxazino[4,3-e]purin-4-amine]"
25,267,"CC(C)N(c1nc(-c2cnc(N)nc2)nc2c1nc1n2CCOC1(C)C)C1CCC1 [Example 64, 2-(2-aminopyrimidin-5-yl)-N-cyclobutyl-N-isopropyl-6,6-dimethyl-8,9-dihydro-6H-[1,4]oxazino[4,3-e]purin-4-amine]"

row,Structure (SMILES),Ki [nM]
1,"CC1(C)OCCn2c1nc1c(N3C4CCC3CC4)nc(-c3cnc(N)nc3)nc12 [Example 56, 5-(4-(7-azabicyclo[2.2.1]heptan-7-yl)-6,6-dimethyl-8,9-dihydro-6H-[1,4]oxazino[4,3-e]purin-2-yl)pyrimidin-2-amine]",339
